From paper PMC6254361, “The properties of Msh2–Msh6 ATP binding mutants suggest a signal amplification mechanism in DNA mismatch repair” (The Journal of Biological Chemistry, 2018)

Biological target: T1, Msh2–Msh6 (Saccharomyces cerevisiae, UniProt P25847+Q03834, P25847:K694M)
T1 sequence (P25847 1-964 K694M): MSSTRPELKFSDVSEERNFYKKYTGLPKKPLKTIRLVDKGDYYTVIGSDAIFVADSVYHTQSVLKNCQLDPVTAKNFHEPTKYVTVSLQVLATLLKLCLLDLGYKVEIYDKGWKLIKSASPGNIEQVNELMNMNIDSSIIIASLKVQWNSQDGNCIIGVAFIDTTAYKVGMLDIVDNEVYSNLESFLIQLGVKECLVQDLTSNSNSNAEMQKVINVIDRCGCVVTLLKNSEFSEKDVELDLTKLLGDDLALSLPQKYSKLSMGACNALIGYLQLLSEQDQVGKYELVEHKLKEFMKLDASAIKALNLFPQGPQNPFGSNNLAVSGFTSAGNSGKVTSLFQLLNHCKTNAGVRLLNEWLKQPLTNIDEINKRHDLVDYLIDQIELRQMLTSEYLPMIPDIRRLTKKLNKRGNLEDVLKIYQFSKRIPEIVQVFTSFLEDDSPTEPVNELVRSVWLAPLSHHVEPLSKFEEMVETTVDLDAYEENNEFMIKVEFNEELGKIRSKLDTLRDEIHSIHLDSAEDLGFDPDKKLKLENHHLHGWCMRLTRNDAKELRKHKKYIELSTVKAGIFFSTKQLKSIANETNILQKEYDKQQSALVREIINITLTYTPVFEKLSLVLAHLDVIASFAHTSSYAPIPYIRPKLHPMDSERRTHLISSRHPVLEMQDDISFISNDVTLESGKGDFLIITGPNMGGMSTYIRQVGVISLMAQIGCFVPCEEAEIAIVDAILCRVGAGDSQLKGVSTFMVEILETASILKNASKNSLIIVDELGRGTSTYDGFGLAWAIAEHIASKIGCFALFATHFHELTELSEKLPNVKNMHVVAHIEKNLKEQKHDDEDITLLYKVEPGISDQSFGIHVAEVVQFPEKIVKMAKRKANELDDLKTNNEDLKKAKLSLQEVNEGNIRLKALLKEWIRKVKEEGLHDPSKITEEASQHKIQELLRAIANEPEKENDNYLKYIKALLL
T1 sequence (Q03834 1-1242): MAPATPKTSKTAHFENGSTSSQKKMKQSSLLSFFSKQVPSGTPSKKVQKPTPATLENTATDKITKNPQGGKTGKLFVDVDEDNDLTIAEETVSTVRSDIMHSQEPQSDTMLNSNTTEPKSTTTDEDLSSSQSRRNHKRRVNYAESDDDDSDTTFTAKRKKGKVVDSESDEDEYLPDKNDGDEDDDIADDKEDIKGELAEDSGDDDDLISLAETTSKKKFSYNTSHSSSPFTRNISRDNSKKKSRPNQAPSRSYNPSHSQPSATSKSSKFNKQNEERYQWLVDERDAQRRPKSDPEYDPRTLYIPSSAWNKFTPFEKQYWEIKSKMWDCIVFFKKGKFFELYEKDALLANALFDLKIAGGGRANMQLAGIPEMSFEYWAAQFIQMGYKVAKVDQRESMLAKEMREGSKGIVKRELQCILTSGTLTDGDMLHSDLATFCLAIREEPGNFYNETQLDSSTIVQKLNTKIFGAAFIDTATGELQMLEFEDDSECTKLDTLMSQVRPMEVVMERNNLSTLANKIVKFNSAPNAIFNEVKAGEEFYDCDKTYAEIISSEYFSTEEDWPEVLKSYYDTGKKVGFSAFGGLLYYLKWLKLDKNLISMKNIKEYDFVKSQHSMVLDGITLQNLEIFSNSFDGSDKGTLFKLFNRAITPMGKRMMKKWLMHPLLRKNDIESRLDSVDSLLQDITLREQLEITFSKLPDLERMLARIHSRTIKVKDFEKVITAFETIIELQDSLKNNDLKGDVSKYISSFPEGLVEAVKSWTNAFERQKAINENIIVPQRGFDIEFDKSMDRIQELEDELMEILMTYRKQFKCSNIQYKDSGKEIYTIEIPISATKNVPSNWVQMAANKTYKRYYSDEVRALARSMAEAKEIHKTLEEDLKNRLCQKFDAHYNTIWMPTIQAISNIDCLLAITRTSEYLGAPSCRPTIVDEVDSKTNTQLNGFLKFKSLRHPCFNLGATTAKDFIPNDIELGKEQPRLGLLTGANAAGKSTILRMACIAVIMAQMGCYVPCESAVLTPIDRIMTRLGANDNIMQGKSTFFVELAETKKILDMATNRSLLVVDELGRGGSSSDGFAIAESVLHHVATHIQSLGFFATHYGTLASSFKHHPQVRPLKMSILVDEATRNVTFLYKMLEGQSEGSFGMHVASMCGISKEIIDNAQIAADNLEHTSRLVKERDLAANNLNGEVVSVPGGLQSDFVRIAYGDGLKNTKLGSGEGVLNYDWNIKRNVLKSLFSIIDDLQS
Test: UV cross-linking of [γ-32P]ATP, SDS-PAGE, phosphorimaging
Format: binding
Conditions: labelled compound; no Mg2+, EDTA, pH 8, on ice; Msh2 site at 60 μM ATP, Msh6 site at 1 μM ATP

Nc1ncnc2c1ncn2[C@@H]1O[C@H](COP(=O)(O)OP(=O)(O)OP(=O)(O)O)[C@@H](O)[C@H]1O [ATP]
relative ATP binding: Msh2(K694M)–Msh6 mutant complex was only defective for binding ATP to the Msh2 subunit
